Source: patent publication US20230115515A1, “PYRAZOLYLPROPANAMIDE COMPOUNDS AND USES THEREOF FOR TREATMENT OF PROSTATE CANCER” (priority 2020, published 2023)

Assays:
[1] = tested on: AR and AR-V7-positive 22RV1 xenograft; experiment: 22RV1 xenograft in NSG mice; assay type: in vivo, mouse
[2] = tested on: Enzalutamide resistant VCaP (MDVR VCaP) xenograft; settings: cited from earlier work
[3] = tested on: UT-1355 TNBC PDX; experiment: TNBC patient-derived xenograft UT-1355 in NSG mice; assay type: in vivo, mouse; settings: for tumor volume at end: in mm³ (unit assumed)
[4] = tested on: FKBP5 gene expression in LNCaP cells; experiment: AR-target gene (FKBP5) expression in LNCaP cells, real-time PCR; assay type: cell-based, human; settings: R1881-induced, FIG. 3
[5] = molecular target: recombinant LBD of wildtype AR (wtAR); settings: read-out: Binding Ki; cited from earlier work
[6] = Metabolic stability in mouse liver microsomes (phase I and II)
[7] = Metabolic stability in rat liver microsomes (phase I and II); assay type: in vitro ADME; settings: for half-life at 1 µM: read-out: RLM T1/2
[8] = In vivo lethality observation; settings: 5 mg/kg
[9] = tested on: ventral prostate (VP) and seminal vesicle (SV) weights; experiment: Hershberger assay in intact rats; assay type: in vivo, rat
Procedure: FIGS. 7A and 7B depict that SARDs and pan-antagonists inhibited androgen-dependent organs in rats. FIGS. 7 A and 7B show the reduction of VP and SV weights following the treatment of intact rats with 20 mg/kg (mpk) po daily of antagonist or vehicle for 14 days (n=5/group). Rats were sacrificed at the end of the treatment period and weights of prostate and SVs were measured and normalized to body weight.
Male rats (6-8 weeks old) were randomized into groups based on body weight. Animals were sacrificed, prostate and seminal vesicles were weighed, and organ weights were normalized to body weight. Male rats (n=5/group) were left intact, for […]. […] Organ weights were normalized to body weight. […] The goal of the experiments was to find compounds with in vivo antiandrogen efficacies greater than 10.
Hershberger Assays. […] Rat ventral prostate (VP), seminal vesicle (SV), and levator ani (LA) muscle are AR-dependent tissues whose size (reflected by their weight) responds rapidly to castration.
Traditionally, agonists are dosed to prevent (whereby agonist is given upon castration) or restore (agonist is given after tissue atrophies) anabolic tissue weights [LA or other skeletal muscles and bone (the latter takes months not days to atrophy and restore)] to intact levels or greater, without increasing androgenic tissue (SV or VP) weights back to intact levels. […]

[10] = in vitro; settings: mouse, microsomes, pH 7.5
[11] = Metabolic stability in human liver microsomes (phase I and II); assay type: in vitro ADME
[12] = tested on: Enzalutamide resistant VCaP (MDVR VCaP) xenograft; experiment: Enz-R (MDVR) VCaP xenograft in intact SRG rats; assay type: in vivo, rat; settings: 10 mg/kg po daily, FIG. 8B
[13] = molecular target: CMV-hAR (Homo sapiens, UniProt P10275); experiment: cell-based; settings: read-out: Wt. IC50
Chain of CMV-hAR (P10275 whole entry, the tested form may be a part): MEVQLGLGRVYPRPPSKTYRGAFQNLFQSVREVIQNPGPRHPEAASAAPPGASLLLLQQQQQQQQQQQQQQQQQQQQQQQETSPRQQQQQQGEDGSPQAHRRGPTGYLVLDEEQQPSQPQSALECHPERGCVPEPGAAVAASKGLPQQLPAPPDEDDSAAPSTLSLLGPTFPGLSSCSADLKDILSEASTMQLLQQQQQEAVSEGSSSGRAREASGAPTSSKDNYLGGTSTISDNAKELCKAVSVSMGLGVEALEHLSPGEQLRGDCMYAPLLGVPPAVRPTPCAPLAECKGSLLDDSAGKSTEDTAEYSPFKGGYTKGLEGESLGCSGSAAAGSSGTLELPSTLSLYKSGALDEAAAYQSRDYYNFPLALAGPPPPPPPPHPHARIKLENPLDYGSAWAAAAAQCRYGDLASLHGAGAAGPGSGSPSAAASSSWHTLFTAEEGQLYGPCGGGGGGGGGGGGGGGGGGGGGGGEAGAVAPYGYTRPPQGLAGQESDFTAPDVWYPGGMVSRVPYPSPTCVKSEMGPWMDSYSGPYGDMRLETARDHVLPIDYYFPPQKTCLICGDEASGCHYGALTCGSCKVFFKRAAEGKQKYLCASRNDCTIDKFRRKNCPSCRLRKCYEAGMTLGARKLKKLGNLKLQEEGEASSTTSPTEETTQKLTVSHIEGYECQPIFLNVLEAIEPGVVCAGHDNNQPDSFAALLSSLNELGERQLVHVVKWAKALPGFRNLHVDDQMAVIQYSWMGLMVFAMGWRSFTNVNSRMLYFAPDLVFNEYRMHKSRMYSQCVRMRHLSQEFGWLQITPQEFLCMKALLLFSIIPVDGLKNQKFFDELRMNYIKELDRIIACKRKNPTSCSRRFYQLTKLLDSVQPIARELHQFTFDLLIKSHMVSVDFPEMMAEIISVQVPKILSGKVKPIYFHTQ

[14] = molecular target: T1, hAR-LBD (633-919) (Homo sapiens, UniProt P10275); experiment: Ligand binding assay (Ki), [3H]mibolerone competition (Table A)
T1 sequence (P10275 633-919): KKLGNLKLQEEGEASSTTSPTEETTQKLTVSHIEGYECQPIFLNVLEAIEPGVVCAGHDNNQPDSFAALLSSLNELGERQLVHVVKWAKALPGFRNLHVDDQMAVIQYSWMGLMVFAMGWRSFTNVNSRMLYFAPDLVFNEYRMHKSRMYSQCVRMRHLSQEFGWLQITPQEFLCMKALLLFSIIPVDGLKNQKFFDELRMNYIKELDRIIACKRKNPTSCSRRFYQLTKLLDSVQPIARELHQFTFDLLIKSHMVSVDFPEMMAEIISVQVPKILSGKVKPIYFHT

[15] = pH 7.5, MLM T1/2 (min), co-factors for phases I and II
[16] = rat, microsomes, pH 7.5, cofactors for phases I and II

CNC(=O)c1ccc(N2C(=S)N(c3ccc(C#N)c(C(F)(F)F)c3)C(=O)C2(C)C)cc1F [4 (enzalutamide), enzalutamide, reference compound]
time to euthanasia criteria (Kaplan-Meier) ([1]; length>2 cm or volume>2000 mm^3, FIG. 12): reached euthanasia criteria earlier than the animals treated with 21c
effect on 22RV1 xenograft growth ([1]; oral, NSG mice): failed to inhibit the growth
effect in MDVR VCaP xenograft ([2]; not shown, previously published): failed to durably achieve any effect
time to euthanasia criteria (Kaplan-Meier) ([3]; enzalutamide 60 mpk, FIG. 15): reached euthanasia criteria earlier than the animals treated with 21c
inhibition of FKBP5 expression [4]: also inhibited expression of the FKBP5 but at a slightly lower potency

CC(O)c1cc(C(=O)N[C@@H](C)Cn2ccc(-c3ccc(C#N)c(Cl)c3)n2)[nH]n1 (some centres unmarked) [6 (darolutamide), darolutamide]
Ki [5]: 11 nM

C[C@](O)(Cn1cc(F)cn1)C(=O)Nc1ccc(C#N)c(C(F)(F)F)c1 [Compound 10, (S)—N-(4-Cyano-3-(trifluoromethyl)phenyl)-3-(4-fluoro-1H-pyrazol-1-yl)-2-hydroxy-2-methylpropanamide]
dose required to achieve similar results (TGI) ([2]; previously published for 10): 20 to 30 mg/kg
tumor volume at start ([3]; 60 mpk 21c, 10 60 mpk b.i.d): 427 mm³
tumor volume at end ([3]; 60 mpk 21c, 10 60 mpk b.i.d): 1354

C[C@](O)(Cn1ccc(F)n1)C(=O)Nc1ccc(C#N)c(C(F)(F)F)c1 [Compound 16b, (S)—N-(4-Cyano-3-(trifluoromethyl)phenyl)-3-(3-fluoro-1H-pyrazol-1-yl)-2-hydroxy-2-methylpropanamide]
half-life at 1 µM [6, 15]: ≥ 0.807 h

C[C@](O)(Cn1cc(Cl)cn1)C(=O)Nc1ccc(C#N)c(C(F)(F)F)c1 [Compound 16c, (S)-3-(4-Chloro-1H-pyrazol-1-yl)-N-(4-cyano-3-(trifluoromethyl)phenyl)-2-hydroxy-2-methylpropanamide]
RLM T1/2 ([7]; cofactors for phases I and II): >2 h
half-life at 1 µM [7, 16]: > 2 h

C[C@](O)(Cn1cc(C(F)(F)F)cn1)C(=O)Nc1ccc(C#N)c(C(F)(F)F)c1 [Compound 16g, (S)—N-(4-Cyano-3-(trifluoromethyl)phenyl)-2-hydroxy-2-methyl-3-(4-(trifluoromethyl)-1H-pyrazol-1-yl)propanamide]
half-life at 1 µM [6, 15]: ≥ 0.807 h
half-life at 1 µM [7, 16]: > 2 h

C[C@](O)(Cn1ccc(C(F)(F)F)n1)C(=O)Nc1ccc(C#N)c(C(F)(F)F)c1 [Compound 16h, (S)—N-(4-Cyano-3-(trifluoromethyl)phenyl)-2-hydroxy-2-methyl-3-(3-(trifluoromethyl)-1H-pyrazol-1-yl)propanamide]
half-life at 1 µM [6, 15]: ≥ 0.807 h

C[C@](O)(Cn1cc(C#N)cn1)C(=O)Nc1ccc(C#N)c(C(F)(F)F)c1 [Compound 16i, (S)-3-(4-Cyano-1H-pyrazol-1-yl)-N-(4-cyano-3-(trifluoromethyl)phenyl)-2-hydroxy-2-methylpropanamide]
half-life at 1 µM [6, 15]: ≥ 0.807 h
lethality in vivo [8]: lethality at 5 mg/kg
toxicity in 20 mg/kg fixed dose screening Hershberger ([9]; 20 mg/kg, rats): toxic so no data

C[C@](O)(Cn1cc(F)cn1)C(=O)Nc1cnc(C#N)c(C(F)(F)F)c1 [Compound 21a]
half-life at 1 µM [10]: ≥ 0.807 h
RLM CLint ([7]; rat, microsomes, 1 µM, pH 7.5): 0 µL/min/mg
HLM CLint ([11]; 1 µM, pH 7.5): 0 µL/min/mg

C[C@](O)(Cn1cc(C#N)cn1)C(=O)Nc1cnc(C#N)c(C(F)(F)F)c1 [Compound 21c, (S)-3-(4-Cyano-1H-pyrazol-1-yl)-N-(6-cyano-5-(trifluoromethyl)pyridin-3-yl)-2-hydroxy-2-methylpropanamide]
tumor volume at end ([1]; oral, NSG mice): 1205 mm^3
tumor volume at start ([1]; oral, NSG mice): 301 mm^3
tumor volume inhibition (maximum) ([1]; oral, NSG mice, FIGS. 11A-11B): 63%
growth inhibition of UT-1355 PDX ([3]; 60 mpk 21c, 10 60 mpk b.i.d): significantly inhibited the growth
tumor volume at start ([3]; 60 mpk 21c, 10 60 mpk b.i.d): 227 mm³
tumor volume at end ([3]; 60 mpk 21c, 10 60 mpk b.i.d): 331

C[C@](O)(Cn1cc(F)cn1)C(=O)Nc1ccc(C(N)=O)nc1 [Compound 21g, (S)-5-(3-(4-Fluoro-1H-pyrazol-1-yl)-2-hydroxy-2-methylpropanamido)picolinamide]
half-life at 1 µM ([6]; pH 7.5): > 6 h

C[C@](O)(Cn1cc(Br)c(F)n1)C(=O)Nc1ccc(C#N)c(C(F)(F)F)c1 [Compound 26a, (S)-3-(4-Bromo-3-fluoro-1H-pyrazol-1-yl)-N-(4-cyano-3-(trifluoromethyl)phenyl)-2-hydroxy-2-methylpropanamide]
half-life at 1 µM [7, 16]: > 2 h
tumor weights at the end of the study [12]: significant inhibition
half-life at 1 µM ([11]; pH 7.5, cofactors for phases I and II, read-out: HLM T1/2): > 2 h
SV weight reduction ([9]; 20 mg/kg po daily, intact rats, FIG. 7B): ~50%

C[C@@](O)(Cn1cc(F)cn1)C(=O)Nc1ccc(C#N)c(C(F)(F)F)c1 [Compound 29a, (R)—N-(4-Cyano-3-(trifluoromethyl)phenyl)-3-(4-fluoro-1H-pyrazol-1-yl)-2-hydroxy-2-methylpropanamide]
half-life at 1 µM ([6]; pH 7.5): ≥ 0.807 h

C[C@](O)(Cn1cc(F)cn1)C(=O)Nc1ccc(C#N)cc1Cl [Compound 29i, (S)—N-(2-Chloro-4-Cyanophenyl)-3-(4-Fluoro-1H-Pyrazol-l-Yl)-2-Hydroxy-2-Methylpropanamide]
IC50 [13]: 1230 nM

C[C@](O)(Cn1cc(C#N)cn1)C(=O)Nc1ccc(C#N)cc1Cl [Compound 29j, (S)—N-(2-chloro-4-cyanophenyl)-3-(4-cyano-1H-pyrazol-1-yl)-2-hydroxy-2-methylpropanamide]
IC50 [13]: 1120 nM

Cc1c(NC(=O)[C@@](C)(O)Cn2cc(C#N)cn2)ccc(C#N)c1Cl [Compound 29k, (S)—N-(3-Chloro-4-Cyano-2-Methylphenyl)-3-(4-Cyano-1H-Pyrazol-1-Yl)-2-Hydroxy-2-Methylpropanamide]
IC50 [13]: 1700 nM

C[C@](O)(Cn1cc(-c2ccc(C#N)cc2)nn1)C(=O)Nc1ccc(C#N)c(C(F)(F)F)c1 [Compound 29o, (S)—N-(4-Cyano-3-(Trifluoromethyl)Phenyl)-3-(4-(4-Cyanophenyl)-1H-1,2,3-Triazol-1-Yl)-2-Hydroxy-2-Methylpropanamide]
Ki [14]: 1510 nM
IC50 [13]: 62 nM
